From patent US12692221B2 (priority 2024, dated 2026)
pEC50, pIC50, pKi: −log10 of the molar value.

How the values were obtained:
5-HT1A (h) = molecular target: T1, 5-HT1A (h) (Homo sapiens, UniProt P08908); test: Radioligand binding 5-HT1A (h) (agonist radioligand), [^3H]8-OH-DPAT, HEK-293 cells
T1 construct: expressed in transfected cells; host or cells: HEK-293 cells
T1 sequence (P08908 1-422): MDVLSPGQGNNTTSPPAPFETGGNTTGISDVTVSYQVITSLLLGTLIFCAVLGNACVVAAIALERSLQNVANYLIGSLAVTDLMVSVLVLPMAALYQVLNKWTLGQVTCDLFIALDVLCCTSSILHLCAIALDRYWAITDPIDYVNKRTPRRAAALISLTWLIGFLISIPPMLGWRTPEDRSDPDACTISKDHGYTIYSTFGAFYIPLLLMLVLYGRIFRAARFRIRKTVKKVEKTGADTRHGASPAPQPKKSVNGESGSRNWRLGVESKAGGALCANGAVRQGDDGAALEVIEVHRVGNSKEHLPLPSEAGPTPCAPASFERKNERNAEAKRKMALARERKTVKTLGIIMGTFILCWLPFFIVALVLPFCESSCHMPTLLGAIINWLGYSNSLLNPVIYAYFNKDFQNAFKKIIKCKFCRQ
Experimental: Methods—Binding Assays: In vitro binding assays were performed using human recombinant receptors expressed in mammalian cell lines. Receptors were expressed in either HEK-293 or CHO cells depending on the target, and assay conditions (radioligand, concentration, nonspecific competitor, temperature, and incubation time) were optimized for each receptor. All assays were conducted in triplicate, and specific binding was quantified by scintillation counting as the detection method for each listed assay.
Specific binding was expressed as a percentage of control-specific binding, and percent inhibition was calculated using the formula in Ex. 8 above. Half-maximal inhibitory concentrations (IC50) were determined by non-linear regression analysis of the inhibition curves using the Hill equation (see Ex. 8). Inhibition constants (Ki) were calculated using the Cheng-Prusoff equation (see Ex. 8). KD values used in these calculations had been previously established for each receptor under the assay conditions (see Table 6). Data analysis was performed using software developed at Cerep and validated against SigmaPlot 4.0 for Windows.

5-HT2A (h) = molecular target: T2, 5-HT2A (h) (Homo sapiens, UniProt P28223); test: Radioligand binding 5-HT2A (h) (agonist radioligand), [^125I](±)DOI, HEK-293 cells
T2 construct: host or cells: HEK-293 cells

5-HT2B (h) = molecular target: T3, 5-HT2B (h) (Homo sapiens, UniProt P41595); test: Radioligand binding 5-HT2B (h) (agonist radioligand), [^125I](±)DOI, CHO cells
T3 construct: host or cells: CHO cells

5-HT2C (h) = molecular target: T4, 5-HT2C (h) (Homo sapiens, UniProt P28335); test: Radioligand binding 5-HT2C (h) (agonist radioligand), [^125I](±)DOI, HEK-293 cells
T4 construct: host or cells: HEK-293 cells
T4 sequence (P28335 33-458): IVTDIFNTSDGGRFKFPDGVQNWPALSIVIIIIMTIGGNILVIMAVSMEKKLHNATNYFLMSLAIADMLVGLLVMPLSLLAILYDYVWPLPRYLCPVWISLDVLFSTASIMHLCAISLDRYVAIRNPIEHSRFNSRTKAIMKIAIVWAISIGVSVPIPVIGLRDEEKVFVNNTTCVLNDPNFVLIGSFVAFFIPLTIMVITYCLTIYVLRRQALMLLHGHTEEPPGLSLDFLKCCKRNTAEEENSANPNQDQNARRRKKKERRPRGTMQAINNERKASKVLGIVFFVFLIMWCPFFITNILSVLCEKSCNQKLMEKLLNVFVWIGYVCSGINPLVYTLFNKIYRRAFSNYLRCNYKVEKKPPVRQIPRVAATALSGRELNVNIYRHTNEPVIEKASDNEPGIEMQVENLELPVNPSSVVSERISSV

5-HT2C = molecular target: T5, 5-HT2C (Homo sapiens, UniProt P28335); test: cell-based; settings: IP-1 accumulation
T5 construct: host or cells: HEK293

[1] = tested on: Balb/c mice sensitized to OVA; test: Airway hyperresponsiveness in OVA-induced murine allergic asthma, whole-body plethysmography with methacholine challenge; format: in vivo, mouse; settings: 0.5 mg/kg intraperitoneal + OVA, measured 48 hours after final OVA exposure
Experimental: Methods: Experiments were conducted in accordance with the methods of Flanagan et al., ACS Pharmacol Transl Sci. 2020 Aug. 13; 4(2):488-502 with modifications. Briefly, Balb/c mice were sensitized to OVA via IP injection. Mice were then exposed repeatedly to aerosolized OVA to induce acute allergic airway inflammation. Airway responsiveness was assessed using non-invasive whole-body plethysmography (WBP) and methacholine challenge. Lung tissue was analyzed to quantify inflammation and mucus production.
Mice were separated into three experimental groups: 1) Naive mice were not exposed to OVA sensitization and challenge, 2) OVA mice were sensitized and challenged with the allergen OVA to induce allergic airway inflammation and hyperresponsiveness, and 3) 0.5 mg/kg exemplary compound+OVA. The exemplary compound was administered to mice via intraperitoneal injection. Respiratory parameters were measured 48 hours after the final OVA exposure. Airway responsiveness to methacholine was measured using noninvasive whole-body plethysmography (WBP) in unrestrained mice.
Baseline PenH values were recorded for each experimental group, followed by exposure to aerosolized saline or increasing concentrations of methacholine, to assess the sensitivity and reactivity of airways due to its bronchoconstricting activity. PenH values were recorded, and data were analyzed using software. […]

T3 sequence (P41595 whole entry): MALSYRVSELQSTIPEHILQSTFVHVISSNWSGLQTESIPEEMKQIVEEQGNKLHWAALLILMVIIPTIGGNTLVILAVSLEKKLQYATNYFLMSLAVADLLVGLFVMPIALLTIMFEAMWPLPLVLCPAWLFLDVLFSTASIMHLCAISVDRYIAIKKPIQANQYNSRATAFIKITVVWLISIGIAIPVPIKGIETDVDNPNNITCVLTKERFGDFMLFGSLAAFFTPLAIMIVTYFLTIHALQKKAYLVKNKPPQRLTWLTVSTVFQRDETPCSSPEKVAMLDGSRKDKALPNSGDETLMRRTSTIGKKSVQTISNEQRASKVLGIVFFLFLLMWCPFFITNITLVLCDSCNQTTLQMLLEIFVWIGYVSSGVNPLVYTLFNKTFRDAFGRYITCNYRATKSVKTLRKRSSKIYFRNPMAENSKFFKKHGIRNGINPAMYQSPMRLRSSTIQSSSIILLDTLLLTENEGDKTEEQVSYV
T2 sequence (P28223 whole entry, looked up): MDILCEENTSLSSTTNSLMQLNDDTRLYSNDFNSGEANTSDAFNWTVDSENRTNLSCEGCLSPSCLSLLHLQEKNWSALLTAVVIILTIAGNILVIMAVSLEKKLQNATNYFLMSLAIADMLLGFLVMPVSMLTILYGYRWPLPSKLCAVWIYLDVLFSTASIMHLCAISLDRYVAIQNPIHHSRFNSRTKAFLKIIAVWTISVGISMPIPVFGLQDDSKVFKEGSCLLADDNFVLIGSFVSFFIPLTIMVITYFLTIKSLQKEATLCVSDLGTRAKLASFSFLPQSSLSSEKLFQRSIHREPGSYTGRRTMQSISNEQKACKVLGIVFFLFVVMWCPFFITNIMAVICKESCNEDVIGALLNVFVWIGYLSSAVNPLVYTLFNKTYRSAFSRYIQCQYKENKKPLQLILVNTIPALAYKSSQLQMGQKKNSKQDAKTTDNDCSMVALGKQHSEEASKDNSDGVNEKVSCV

COCc1cc(CCN)c(O)cc1CC(C)C [2CiBu-2OH-5MM, 2-(2-aminoethyl)-5-isobutyl-4-(methoxymethyl)phenol]
Mean Percent Inhibition of Control Specific Binding (5-HT1A (h)): 34.8%

COCCc1cc(CCN)c(OC)cc1Br [Compound 2CB-5ME, reference compound]
Mean Percent Inhibition of Control Specific Binding (5-HT2A (h); 5-HT2A(h) (agonist radioligand)): 98.8%
Mean Percent Inhibition of Control Specific Binding (5-HT2B (h); 5-HT2B(h) (agonist radioligand)): 104.1%
Mean Percent Inhibition of Control Specific Binding (5-HT2C (h); 5-HT2C(h) (agonist radioligand)): 99.3%
pEC50 (5-HT2C): 6.58
Mean Percent Inhibition of Control Specific Binding (5-HT1A (h)): 98.2%

COCc1cc(CCN)c(OC)cc1Br [Compound 2CB-5MM, 2-(4-bromo-2-methoxy-5-(methoxymethyl)phenyl)ethan-1-amine]
pEC50 (5-HT2C): 6.65
Mean Percent Inhibition of Control Specific Binding (5-HT1A (h)): 95.1%

COCc1cc(CCN)c(OC)cc1CC(C)C [Compound 2CiBu-5MM, 2-[4-isobutyl-2-methoxy-5-(methoxymethyl)phenyl]ethanamine]
pIC50 (5-HT2A (h)): 7.24
pKi (5-HT2A (h)): 7.37
nH (5-HT2A (h); 5-HT2A, Hill coefficient): 0.6
pIC50 (5-HT2B (h)): 6.57
pKi (5-HT2B (h)): 6.89
nH (5-HT2B (h); 5-HT2B, Hill coefficient): 0.7
pIC50 (5-HT2C (h)): 7.85
pKi (5-HT2C (h)): 7.92
nH (5-HT2C (h); 5-HT2C, Hill coefficient): 0.9
Mean Percent Inhibition of Control Specific Binding (5-HT1A (h)): 76.5%
PenH response to methacholine (airway hyperresponsiveness) [1]: reduced PenH values to levels representative of normal airway function
